Legend:
Assay type in all cases: in vivo
Conditions in all cases: treatment dosage 320 g/ha
[1] = system: barnyard grass; assay: Test Example 1: weedkilling efficacy, preemergent weed treatment in the submerged state; A: barnyard grass
Procedure, shortened: (§1)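 Submerged pre-emergence treatment, water-surface application of compound emulsion at g/ha dosages; 4 cm flooded alluvial soil, weeds sown and 2.5-leaf rice transplanted same day. Rated after 3 weeks, greenhouse.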

[2] = system: bulrush; assay: Test Example 1: weedkilling efficacy, preemergent weed treatment in the submerged state; B: bulrush
Procedure, shortened: as §1

[3] = system: oval-leafed pondweed; assay: Test Example 1: weedkilling efficacy, preemergent weed treatment in the submerged state; C: oval-leafed pondweed
Procedure, shortened: as §1

[4] = system: transplanted rice; assay: Test Example 1: preemergent weed treatment in the submerged state, effect on crop; a: transplanted rice
Procedure, shortened: as §1

[5] = system: barnyard grass; assay: Test Example 2: weedkilling efficacy, growth period weed treatment in the submerged state; A: barnyard grass
Procedure, shortened: (§2)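 Seedlings at 1-2 leaves in 4 cm-deep submerged alluvial soil received emulsion formulations on the water surface, dosed per hectare; effects were judged 3 weeks on.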

[6] = system: bulrush; assay: Test Example 2: weedkilling efficacy, growth period weed treatment in the submerged state; B: bulrush
Procedure, shortened: as §2

[7] = system: oval-leafed pondweed; assay: Test Example 2: weedkilling efficacy, growth period weed treatment in the submerged state; C: oval-leafed pondweed
Procedure, shortened: as §2

[8] = system: crabgrass; assay: Test Example 3: weedkilling efficacy through soil treatment; D: crabgrass
Procedure, shortened: (§3)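 Crop and weed responses were judged three weeks after a uniform surface spray of the water-diluted emulsion at the given g/ha rate. Seeds sat beneath about 1.5 cm of sterilized diluvial soil, and boxes stood in a greenhouse at 25 to 30° C.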

[9] = system: green foxtail; assay: Test Example 3: weedkilling efficacy through soil treatment; E: green foxtail
Procedure, shortened: as §3

[10] = system: barnyard grass; assay: Test Example 3: weedkilling efficacy through soil treatment; F: barnyard grass
Procedure, shortened: as §3

[11] = system: wild oat; assay: Test Example 3: weedkilling efficacy through soil treatment; G: wild oat
Procedure, shortened: as §3

[12] = system: black-grass; assay: Test Example 3: weedkilling efficacy through soil treatment; H: black-grass
Procedure, shortened: as §3

[13] = system: Italian ryegrass; assay: Test Example 3: weedkilling efficacy through soil treatment; I: Italian ryegrass
Procedure, shortened: as §3

[14] = system: common wind-grass; assay: Test Example 3: weedkilling efficacy through soil treatment; J: common wind-grass
Procedure, shortened: as §3

[15] = system: Indian mallow; assay: Test Example 3: weedkilling efficacy through soil treatment; K: Indian mallow
Procedure, shortened: as §3

[16] = system: redroot pigweed; assay: Test Example 3: weedkilling efficacy through soil treatment; L: redroot pigweed
Procedure, shortened: as §3

[17] = system: chickweed; assay: Test Example 3: weedkilling efficacy through soil treatment; N: chickweed
Procedure, shortened: as §3

[18] = system: catchweed; assay: Test Example 3: weedkilling efficacy through soil treatment; O: catchweed
Procedure, shortened: as §3

[19] = system: birds-eye speedwell; assay: Test Example 3: weedkilling efficacy through soil treatment; p: birds-eye speedwell
Procedure, shortened: as §3

[20] = system: directly sown rice; assay: Test Example 3: soil treatment, effect on crop; b: directly sown rice
Procedure, shortened: as §3

[21] = system: corn; assay: Test Example 3: soil treatment, effect on crop; c: corn
Procedure, shortened: as §3

[22] = system: soybean; assay: Test Example 3: soil treatment, effect on crop; d: soybean
Procedure, shortened: as §3

[23] = system: wheat; assay: Test Example 3: soil treatment, effect on crop; e: wheat
Procedure, shortened: as §3

[24] = system: beet; assay: Test Example 3: soil treatment, effect on crop; f: beet
Procedure, shortened: as §3

[25] = system: rapeseed; assay: Test Example 3: soil treatment, effect on crop; g: rapeseed
Procedure, shortened: as §3

[26] = system: crabgrass; assay: Test Example 4: weedkilling efficacy by foliar treatment; D: crabgrass
Procedure, shortened: (§4)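 Seeds are spot-sown into sterilized diluvial soil and covered with about 1.5 cm of soil. After 14 days' greenhouse growth at 25 to 30° C, plants are sprayed on stems and leaves with diluted emulsion at the stated g/ha rate, then scored at 3 weeks.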

[27] = system: green foxtail; assay: Test Example 4: weedkilling efficacy by foliar treatment; E: green foxtail
Procedure, shortened: as §4

[28] = system: barnyard grass; assay: Test Example 4: weedkilling efficacy by foliar treatment; F: barnyard grass
Procedure, shortened: as §4

[29] = system: wild oat; assay: Test Example 4: weedkilling efficacy by foliar treatment; G: wild oat
Procedure, shortened: as §4

[30] = system: black-grass; assay: Test Example 4: weedkilling efficacy by foliar treatment; H: black-grass
Procedure, shortened: as §4

[31] = system: Italian ryegrass; assay: Test Example 4: weedkilling efficacy by foliar treatment; I: Italian ryegrass
Procedure, shortened: as §4

[32] = system: common wind-grass; assay: Test Example 4: weedkilling efficacy by foliar treatment; J: common wind-grass
Procedure, shortened: as §4

[33] = system: Indian mallow; assay: Test Example 4: weedkilling efficacy by foliar treatment; K: Indian mallow
Procedure, shortened: as §4

[34] = system: redroot pigweed; assay: Test Example 4: weedkilling efficacy by foliar treatment; L: redroot pigweed
Procedure, shortened: as §4

[35] = system: fig-leafed goosefoot; assay: Test Example 4: weedkilling efficacy by foliar treatment; M: fig-leafed goosefoot
Procedure, shortened: as §4

[36] = system: chickweed; assay: Test Example 4: weedkilling efficacy by foliar treatment; N: chickweed
Procedure, shortened: as §4

[37] = system: catchweed; assay: Test Example 4: weedkilling efficacy by foliar treatment; O: catchweed
Procedure, shortened: as §4

[38] = system: birds-eye speedwell; assay: Test Example 4: weedkilling efficacy by foliar treatment; p: birds-eye speedwell
Procedure, shortened: as §4

[39] = system: directly sown rice; assay: Test Example 4: foliar treatment, effect on crop; b: directly sown rice
Procedure, shortened: as §4

[40] = system: corn; assay: Test Example 4: foliar treatment, effect on crop; c: corn
Procedure, shortened: as §4

[41] = system: soybean; assay: Test Example 4: foliar treatment, effect on crop; d: soybean
Procedure, shortened: as §4

[42] = system: wheat; assay: Test Example 4: foliar treatment, effect on crop; e: wheat
Procedure, shortened: as §4

[43] = system: beet; assay: Test Example 4: foliar treatment, effect on crop; f: beet
Procedure, shortened: as §4

[44] = system: rapeseed; assay: Test Example 4: foliar treatment, effect on crop; g: rapeseed
Procedure, shortened: as §4

In the case of CCOc1cc(C(F)(F)F)cc(NC(=O)C(C)(C)N2COC(C)=C(c3ccccc3)C2=O)n1 [B-2-50], the “A (barnyard grass) weedkilling efficacy grade” value [1] is reported as 5 (weed kill ratio 90% or more, (practically complete withering)), the “B (bulrush) weedkilling efficacy grade” value [2] is reported as 5 (weed kill ratio 90% or more, (practically complete withering)) and the “C (oval-leafed pondweed) weedkilling efficacy grade” value [3] is reported as 5 (weed kill ratio 90% or more, (practically complete withering)). The “a (transplanted rice) effect on crop grade” value [4] was 0 (weed kill ratio 5% or less (practically no effect)), the “A (barnyard grass) weedkilling efficacy grade” value [5] was 5 (weed kill ratio 90% or more, (practically complete withering)) and the “B (bulrush) weedkilling efficacy grade” value [6] was 4 (weed kill ratio 70% or more, less than 90%). For the same compound, the “C (oval-leafed pondweed) weedkilling efficacy grade” value [7] was 4 (weed kill ratio 70% or more, less than 90%), the “D (crabgrass) weedkilling efficacy grade” value [8] was 5 (weed kill ratio 90% or more, (practically complete withering)) and the “E (green foxtail) weedkilling efficacy grade” value [9] was 5 (weed kill ratio 90% or more, (practically complete withering)). The “F (barnyard grass) weedkilling efficacy grade” value [10] was 4 (weed kill ratio 70% or more, less than 90%), the “G (wild oat) weedkilling efficacy grade” value [11] was 0 (weed kill ratio 5% or less (practically no effect)) and the “H (black-grass) weedkilling efficacy grade” value [12] was 2 (weed kill ratio 20% or more, less than 40%). For the same compound, the “I (Italian ryegrass) weedkilling efficacy grade” value [13] was 3 (weed kill ratio 40% or more, less than 70%), the “J (common wind-grass) weedkilling efficacy grade” value [14] was 5 (weed kill ratio 90% or more, (practically complete withering)) and the “K (Indian mallow) weedkilling efficacy grade” value [15] was 0 (weed kill ratio 5% or less (practically no effect)). The “L (redroot pigweed) weedkilling efficacy grade” value [16] was 2 (weed kill ratio 20% or more, less than 40%), the “N (chickweed) weedkilling efficacy grade” value [17] was 0 (weed kill ratio 5% or less (practically no effect)) and the “O (catchweed) weedkilling efficacy grade” value [18] was 0 (weed kill ratio 5% or less (practically no effect)). For the same compound, the “P (birds-eye speedwell) weedkilling efficacy grade” value [19] was 0 (weed kill ratio 5% or less (practically no effect)), the “b (directly sown rice) effect on crop grade” value [20] was 1 (weed kill ratio 5% or more, less than 20%) and the “c (corn) effect on crop grade” value [21] was 1 (weed kill ratio 5% or more, less than 20%). For the same compound, the “d (soybean) effect on crop grade” value [22] was 0 (weed kill ratio 5% or less (practically no effect)), the “e (wheat) effect on crop grade” value [23] was 0 (weed kill ratio 5% or less (practically no effect)) and the “f (beet) effect on crop grade” value [24] was 0 (weed kill ratio 5% or less (practically no effect)). The “g (rapeseed) effect on crop grade” value [25] was 0 (weed kill ratio 5% or less (practically no effect)), the “D (crabgrass) weedkilling efficacy grade” value [26] was 2 (weed kill ratio 20% or more, less than 40%) and the “E (green foxtail) weedkilling efficacy grade” value [27] was 2 (weed kill ratio 20% or more, less than 40%). The “F (barnyard grass) weedkilling efficacy grade” value [28] was 0 (weed kill ratio 5% or less (practically no effect)), the “G (wild oat) weedkilling efficacy grade” value [29] was 0 (weed kill ratio 5% or less (practically no effect)) and the “H (black-grass) weedkilling efficacy grade” value [30] was 1 (weed kill ratio 5% or more, less than 20%). The “I (Italian ryegrass) weedkilling efficacy grade” value [31] was 1 (weed kill ratio 5% or more, less than 20%), the “J (common wind-grass) weedkilling efficacy grade” value [32] was 1 (weed kill ratio 5% or more, less than 20%) and the “K (Indian mallow) weedkilling efficacy grade” value [33] was 1 (weed kill ratio 5% or more, less than 20%). For the same compound, the “L (redroot pigweed) weedkilling efficacy grade” value [34] was 0 (weed kill ratio 5% or less (practically no effect)), the “M (fig-leafed goosefoot) weedkilling efficacy grade” value [35] was 3 (weed kill ratio 40% or more, less than 70%) and the “N (chickweed) weedkilling efficacy grade” value [36] was 0 (weed kill ratio 5% or less (practically no effect)). For the same compound, the “O (catchweed) weedkilling efficacy grade” value [37] was 0 (weed kill ratio 5% or less (practically no effect)), the “P (birds-eye speedwell) weedkilling efficacy grade” value [38] was 0 (weed kill ratio 5% or less (practically no effect)) and the “b (directly sown rice) effect on crop grade” value [39] was 0 (weed kill ratio 5% or less (practically no effect)). For the same compound, the “c (corn) effect on crop grade” value [40] was 0 (weed kill ratio 5% or less (practically no effect)), the “d (soybean) effect on crop grade” value [41] was 0 (weed kill ratio 5% or less (practically no effect)) and the “e (wheat) effect on crop grade” value [42] was 0 (weed kill ratio 5% or less (practically no effect)). For the same compound, the “f (beet) effect on crop grade” value [43] was 0 (weed kill ratio 5% or less (practically no effect)) and the “g (rapeseed) effect on crop grade” value [44] was 0 (weed kill ratio 5% or less (practically no effect)).

Source: patent US9738634B2, “Heterocyclic amide compound and herbicide” (SYNGENTA PARTICIPATIONS AG, priority 2013, dated 2017)
